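48-hour exposure; five concentrations; linearly interpolated endpoints. At the GI50, growth is halved.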 Active and inactive are the calls of the source. Rule as the data show it: active = GI50 up to about 1.1 µM and inactive = higher.
How the values were obtained:
Test in all cases: DTP human tumour cell line panel, 48 h
RXF 393 = tested on: RXF 393
SW-620 = tested on: SW-620
NCI-H226 = tested on: NCI-H226
SNB-75 = tested on: SNB-75
IGROV-1 = tested on: IGROV-1
SK-OV-3 = tested on: SK-OV-3
NCI-H460 = tested on: NCI-H460
HCC 2998 = tested on: HCC 2998
SF-539 = tested on: SF-539
Hs-578T = tested on: Hs-578T
M14 = tested on: M14
BT-549 = tested on: BT-549
PC-3 = tested on: PC-3
UO-31 = tested on: UO-31
NCI/ADR-RES = tested on: NCI/ADR-RES
A498 = tested on: A498
ACHN = tested on: ACHN
OVCAR-8 = tested on: OVCAR-8
MDA-MB-231 = tested on: MDA-MB-231
CAKI-1 = tested on: CAKI-1

Measured: GI50

COC(=O)Cc1c(-c2[nH]c3ccccc3c2CC(=O)OC)[nH]c2ccccc12
inactive: RXF 393 30.3 µM | SW-620 > 53.5 µM | NCI-H226 > 54.7 µM | SNB-75 > 57.4 µM | IGROV-1 45.9 µM | SK-OV-3 > 58.1 µM | NCI-H460 > 63 µM | HCC 2998 > 57 µM | SF-539 67.5 µM | Hs-578T > 68.4 µM | M14 > 52.4 µM | BT-549 > 57.1 µM | PC-3 > 49 µM | UO-31 > 55.3 µM | NCI/ADR-RES > 57.3 µM | A498 38.3 µM | ACHN > 58.9 µM | OVCAR-8 32.2 µM | MDA-MB-231 38.7 µM | CAKI-1 > 37.2 µM

NC1=Nc2ccccc2Sc2nncn21
inactive: RXF 393 > 100 µM | SW-620 > 100 µM | NCI-H226 > 100 µM | SNB-75 > 100 µM | IGROV-1 > 100 µM | SK-OV-3 > 100 µM | NCI-H460 > 100 µM | HCC 2998 > 100 µM | SF-539 > 100 µM | Hs-578T > 100 µM | M14 > 100 µM | BT-549 > 100 µM | PC-3 > 100 µM | UO-31 > 100 µM | NCI/ADR-RES > 100 µM | A498 > 100 µM | ACHN > 100 µM | OVCAR-8 > 100 µM | MDA-MB-231 85.3 µM | CAKI-1 > 100 µM

C[N+]12CCCCC1C(CN1C(=O)c3ccccc3C1=O)CCC2 (stereo not given)
inactive: RXF 393 > 100 µM | SW-620 > 100 µM | NCI-H226 > 100 µM | SNB-75 > 100 µM | IGROV-1 > 100 µM | SK-OV-3 > 100 µM | NCI-H460 > 100 µM | HCC 2998 > 100 µM | SF-539 > 100 µM | Hs-578T > 100 µM | M14 > 100 µM | BT-549 > 100 µM | PC-3 > 100 µM | UO-31 > 100 µM | NCI/ADR-RES > 100 µM | A498 > 100 µM | ACHN > 100 µM | OVCAR-8 > 100 µM | MDA-MB-231 > 100 µM | CAKI-1 > 100 µM

CCOC(=O)c1c2ccccc2n2c(=O)n(-c3ccc(OC)cc3)nnc12
inactive: RXF 393 19 µM | SW-620 > 42.4 µM | NCI-H226 23.3 µM | SNB-75 14.5 µM | IGROV-1 17.5 µM | SK-OV-3 26.7 µM | NCI-H460 > 95.1 µM | HCC 2998 > 100 µM | SF-539 19.5 µM | Hs-578T 19.9 µM | M14 51.1 µM | BT-549 26.5 µM | PC-3 18.2 µM | UO-31 29.4 µM | NCI/ADR-RES 31 µM | A498 44.3 µM | ACHN 31.1 µM | OVCAR-8 20.6 µM | MDA-MB-231 > 45.5 µM | CAKI-1 > 45.7 µM

COc1ccc2c(c1)C(=O)OCCC2
inactive: RXF 393 > 100 µM | SW-620 > 100 µM | NCI-H226 > 100 µM | SNB-75 54 µM | IGROV-1 > 100 µM | SK-OV-3 > 100 µM | NCI-H460 > 100 µM | HCC 2998 > 100 µM | SF-539 > 100 µM | Hs-578T > 100 µM | M14 > 100 µM | BT-549 > 100 µM | PC-3 > 100 µM | UO-31 26.7 µM | NCI/ADR-RES > 100 µM | A498 > 100 µM | ACHN > 100 µM | OVCAR-8 > 100 µM | MDA-MB-231 > 100 µM | CAKI-1 > 100 µM

COC(=O)C1=C(C)N2[C@H](C(=O)O)CS[C@@]2(C)[C@H](C(=O)OC)[C@H]1c1cccc([N+](=O)[O-])c1
inactive: RXF 393 > 100 µM | SW-620 > 100 µM | NCI-H226 > 100 µM | SNB-75 > 100 µM | IGROV-1 > 100 µM | SK-OV-3 > 100 µM | NCI-H460 > 100 µM | HCC 2998 > 100 µM | SF-539 > 100 µM | Hs-578T > 100 µM | M14 > 100 µM | BT-549 > 100 µM | PC-3 > 100 µM | UO-31 > 100 µM | NCI/ADR-RES > 100 µM | A498 > 100 µM | ACHN > 100 µM | OVCAR-8 > 100 µM | MDA-MB-231 > 100 µM | CAKI-1 > 100 µM

CCOC(=O)c1c(SC)nc(-c2ccc(Cl)cc2)sc1=N.[O-][Cl+3]([O-])([O-])O
inactive: RXF 393 33.9 µM | SW-620 48 µM | NCI-H226 25.9 µM | SNB-75 25.1 µM | IGROV-1 20.8 µM | SK-OV-3 37.2 µM | NCI-H460 26 µM | HCC 2998 22.7 µM | SF-539 32.1 µM | Hs-578T 27.9 µM | M14 45.4 µM | BT-549 30 µM | PC-3 26.1 µM | UO-31 33.8 µM | NCI/ADR-RES 23.7 µM | A498 31.5 µM | ACHN 40.1 µM | OVCAR-8 23.5 µM | MDA-MB-231 41.7 µM | CAKI-1 35.5 µM

O=C1C(=C/C=C2/SC(c3ccccc3)(c3ccccc3)c3ccccc32)C(=O)c2ccccc21
inactive: RXF 393 > 100 µM | SW-620 > 100 µM | NCI-H226 > 100 µM | SNB-75 > 100 µM | IGROV-1 > 100 µM | SK-OV-3 > 100 µM | NCI-H460 > 100 µM | HCC 2998 > 100 µM | SF-539 > 100 µM | Hs-578T > 100 µM | M14 > 100 µM | BT-549 > 100 µM | PC-3 80.7 µM | UO-31 > 100 µM | NCI/ADR-RES > 100 µM | A498 > 100 µM | ACHN > 100 µM | OVCAR-8 > 100 µM | MDA-MB-231 > 100 µM | CAKI-1 > 100 µM

Reference: ChEMBL document CHEMBL1201862, “PubChem BioAssay data set” (2004)
